Measured values reported in patent US20100113540A1, “Azole and Thiazole Derivatives and Their Use” (ARGENTA DISCOVERY LIMITED, priority 2005, published 2010).
Counter-ions that a name gives are not always drawn.

Key:
M3 muscarinic receptor = biological target: T1, M3 muscarinic receptor (Homo sapiens, UniProt P20309); experiment: Muscarinic receptor radioligand binding assay ([3H]-NMS), M3; conditions: cell membranes expressing human M3 receptor
T1 construct: purchased
Experimental: (§1) The inhibitory effects of compounds of the present invention at the M3 muscarinic receptor and (in the case of Example 77) the β2 adrenergic receptor, were determined by the following binding assays:
Radioligand binding studies utilising [^3H]-N-methyl scopolamine ([^3H]-NMS) and commercially available cell membranes expressing the human muscarinic receptors (M2 and M3) were used to assess the affinity of muscarinic antagonists for M2 and M3 receptors. Membranes in TRIS buffer were incubated in 96-well plates with [^3H]-NMS and M3 antagonist at various concentrations for 3 hours. Membranes and bound radioligand were then harvested by filtration and allowed to dry overnight. Scintillation fluid was then added and the bound radioligand counted using a Can berra Packard Topcount scintillation counter

[1] = biological target: T2, human β2 adrenergic receptor (Homo sapiens, UniProt P07550); experiment: β-Adrenergic receptor radioligand binding assay ([125I]-Iodocyanopindolol); conditions: cell membranes expressing human β2 adrenergic receptor
T2 construct: purchased
Experimental: as §1
Radioligand binding studies utilising [^125I]-Iodocyanopindolol and commercially available cell membranes expressing the human β2 adrenergic receptor were used to assess the affinity of antagonists for β2-adrenergic receptor. Membranes and SPA-beads were incubated with [^125I-Iodocyanopindolol and β2 antagonist at various concentrations for 3 hours at room temperature in TRIS buffer. The assay was performed in 96-well plates which were read using the Wallac Microbeta counter.

T1 sequence (P20309 whole entry): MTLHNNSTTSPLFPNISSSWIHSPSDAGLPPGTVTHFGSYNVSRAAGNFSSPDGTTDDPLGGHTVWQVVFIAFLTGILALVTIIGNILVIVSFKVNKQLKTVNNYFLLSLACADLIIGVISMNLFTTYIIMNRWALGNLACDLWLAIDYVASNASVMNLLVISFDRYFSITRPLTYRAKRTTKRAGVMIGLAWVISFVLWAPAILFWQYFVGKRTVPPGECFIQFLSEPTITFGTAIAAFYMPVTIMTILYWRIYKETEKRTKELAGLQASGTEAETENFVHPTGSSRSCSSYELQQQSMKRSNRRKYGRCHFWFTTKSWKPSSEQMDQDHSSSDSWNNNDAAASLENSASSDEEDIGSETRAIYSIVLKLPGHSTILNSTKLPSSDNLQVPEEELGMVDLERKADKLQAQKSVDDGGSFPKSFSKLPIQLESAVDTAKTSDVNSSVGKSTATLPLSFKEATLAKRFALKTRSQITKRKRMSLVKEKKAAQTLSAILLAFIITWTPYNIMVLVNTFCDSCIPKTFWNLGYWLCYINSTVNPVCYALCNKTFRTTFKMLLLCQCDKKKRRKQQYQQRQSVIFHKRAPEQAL
T2 sequence (P07550 whole entry): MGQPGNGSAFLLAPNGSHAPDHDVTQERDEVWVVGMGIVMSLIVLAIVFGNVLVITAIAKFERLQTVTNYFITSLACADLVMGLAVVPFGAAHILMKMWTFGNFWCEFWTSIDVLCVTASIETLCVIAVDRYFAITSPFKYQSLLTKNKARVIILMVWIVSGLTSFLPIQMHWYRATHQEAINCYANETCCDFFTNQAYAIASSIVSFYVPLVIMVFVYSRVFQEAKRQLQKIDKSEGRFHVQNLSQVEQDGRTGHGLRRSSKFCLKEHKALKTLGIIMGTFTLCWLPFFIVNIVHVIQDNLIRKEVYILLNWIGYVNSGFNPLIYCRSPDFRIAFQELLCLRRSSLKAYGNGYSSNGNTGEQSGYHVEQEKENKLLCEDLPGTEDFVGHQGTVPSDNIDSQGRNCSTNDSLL

SMILES	Ki (M3 muscarinic receptor) [nM]	Ki [1] [nM]
C[N+](C)(CCOc1ccccc1)Cc1cnc([C@](O)(c2ccccc2)C2CCCCC2)o1 [Example 49, [2-((R)-cyclohexyl-hydroxy-phenyl-methyl)-oxazol-5-ylmethyl]-dimethyl-(2-phenoxy-ethyl)-ammonium formate]	< 1	–
CN(Cc1ccc(CC[N+](C)(C)Cc2cnc([C@](O)(c3ccccc3)C3CCCCC3)o2)cc1)C(=O)OC(C)(C)C [Example 50, (2-{4-[(Tert-butoxycarbonyl-methyl-amino)-methyl]-phenyl}-ethyl)-[2-((R)-cyclohexyl-hydroxy-phenyl-methyl)-oxazol-5-ylmethyl]-dimethyl-ammonium methanesulfonate]	> 10	–
C[N+](C)(CCCOc1ccc(C(N)=O)cc1)Cc1cnc([C@](O)(c2ccccc2)C2CCCCC2)o1 [Example 51, [3-(4-Carbamoyl-phenoxy)-propyl]-[2-((R)-cyclohexyl-hydroxy-phenyl-methyl)-oxazol-5-ylmethyl]-dimethyl-ammonium bromide]	1 to 10	–
C[N+](C)(CC(=O)Nc1ccon1)Cc1cnc([C@](O)(c2ccccc2)C2CCCCC2)o1 [Example 52, [2-((R)-Cyclohexyl-hydroxy-phenyl-methyl)-oxazol-5-ylmethyl]-(isoxazol-3-ylcarbamoylmethyl)-dimethyl-ammonium bromide]	1 to 10	–
COC(=O)c1ccc(OCCC[N+](C)(C)Cc2cnc([C@](O)(c3ccccc3)C3CCCCC3)o2)cc1 [Example 53, [2-((R)-Cyclohexyl-hydroxy-phenyl-methyl)-oxazol-5-ylmethyl]-[3-(4-methoxycarbonyl-phenoxy)-propyl]-dimethyl-ammonium bromide]	1 to 10	–
C[N+](C)(CCCOc1ccc(S(N)(=O)=O)cc1)Cc1cnc([C@](O)(c2ccccc2)C2CCCCC2)o1 [Example 54, [2-((R)-Cyclohexyl-hydroxy-phenyl-methyl)-oxazol-5-ylmethyl]-dimethyl-[3-(4-sulfamoyl-phenoxy)-propyl]-ammonium bromide]	1 to 10	–
Cc1ccc(OCCC[N+](C)(C)Cc2cnc([C@](O)(c3ccccc3)C3CCCCC3)o2)cc1 [Example 55, [2-((R)-Cyclohexyl-hydroxy-phenyl-methyl)-oxazol-5-ylmethyl]-dimethyl-(3-p-tolyloxy-propyl)-ammonium bromide]	< 1	–
C[N+](C)(CCCOc1ccc(Cl)cc1)Cc1cnc([C@](O)(c2ccccc2)C2CCCCC2)o1 [Example 56, [3-(4-Chloro-phenoxy)-propyl]-[2-((R)-cyclohexyl-hydroxy-phenyl-methyl)-oxazol-5-ylmethyl]-dimethyl-ammonium bromide]	< 1	–
C[N+](C)(CCCOc1ccc(Cl)c(Cl)c1)Cc1cnc([C@](O)(c2ccccc2)C2CCCCC2)o1 [Example 57, [2-((R)-Cyclohexyl-hydroxy-phenyl-methyl)-oxazol-5-ylmethyl]-[3-(3,4-dichloro-phenoxy)-propyl]-dimethyl-ammonium bromide]	< 1	–
C[N+]1(Cc2cnc(C(O)(c3ccccc3)c3ccccc3)o2)CCC(Oc2ccccc2)CC1 (stereo not drawn) [Example 58, 1-[2-(Hydroxy-diphenyl-methyl)-oxazol-5-ylmethyl]-1-methyl-4-phenoxy-piperidinium bromide]	1 to 10	–
C[N+](C)(Cc1ccccc1)Cc1cnc([C@](O)(c2ccccc2)C2CCCC2)o1 [Example 59, Benzyl-[2-(cyclopentyl-hydroxy-phenyl-methyl)-oxazol-5-ylmethyl]-dimethyl-ammonium bromide]	1 to 10	–
CNCCCCCCCC[N+](C)(C)Cc1cnc([C@](O)(c2ccccc2)C2CCCCC2)o1 [Example 61, [2-((R)-cyclohexyl-hydroxy-phenyl-methyl)-oxazol-5-ylmethyl]-dimethyl-(8-methylamino-octyl)-ammonium methanesulfonate hydrochloride salt]	< 1	–
CNCc1ccc(CC[N+](C)(C)Cc2cnc([C@](O)(c3ccccc3)C3CCCCC3)o2)cc1 [Example 62, [2-((R)-cyclohexyl-hydroxy-phenyl-methyl)-oxazol-5-ylmethyl]-dimethyl-[2-(4-methylaminomethyl-phenyl)-ethyl]-ammonium methanesulfonate hydrochloride]	< 1	–
C[N+](C)(CCCOc1ccccc1)CCc1cnc(C(O)(c2ccccc2)C2CCCCC2)o1 (stereo not drawn) [Example 65, {2-[2-(Cyclohexyl-hydroxy-phenyl-methyl)-oxazol-5-yl]-ethyl}-dimethyl-(3-phenoxy-propyl)-ammonium bromide]	< 1	–
CN(C)CCc1cnc(C(O)(c2ccccc2)c2ccccc2)o1 [Example 71, [5-(2-Dimethylamino-ethyl)-oxazol-2-yl]-diphenyl-methanol]	1 to 10	–
C[N+](C)(CCCOc1ccccc1)CCc1cnc(C(O)(c2ccccc2)c2ccccc2)o1 [Example 72, {2-[2-(Hydroxy-diphenyl-methyl)-oxazol-5-yl]-ethyl}-dimethyl-(3-phenoxy-propyl)-ammonium bromide]	< 1	–
CN(C)Cc1cnc(C(c2ccccc2)c2ccccc2)o1 [Example 73, (2-Benzhydryl-oxazol-5-ylmethyl)-dimethyl-amine]	> 10	–
C[N+](C)(CCCOc1ccccc1)Cc1cnc(C(c2ccccc2)c2ccccc2)o1 [Example 74, (2-Benzhydryl-oxazol-5-ylmeth-dimethyl-(3-phenoxy-propyl)-ammonium bromide]	> 10	–
COC(c1ccccc1)(c1ccccc1)c1ncc(C[N+](C)(C)CCCOc2ccccc2)o1 [Example 76, [2-(Methoxy-diphenyl-methyl)-oxazol-5-ylmethyl]-dimethyl-(3-phenoxy-propyl)-ammonium bromide]	> 10	–
CN(CCCCCCCCCNC[C@H](O)c1ccc(O)c2[nH]c(=O)ccc12)Cc1cnc(C(O)(c2ccccc2)C2CCCCC2)o1 (stereo partly drawn) [Example 77, 5-[(R)-2-(9-{[2-(Cyclohexyl-hydroxy-phenyl-methyl)-oxazol-5-ylmethyl]-methyl-amino}-nonylamino)-1-hydroxy-ethyl]-8-hydroxy-1H-quinolin-2-one]	> 10	< 100
C[N+](C)(CCCOc1ccccc1)Cc1cnc(C(O)(c2ccccc2)c2ccccc2)s1 [Example 79, [2-(Hydroxydiphenylmethyl)thiazol-5-ylmethyl]dimethyl-(3-phenoxypropyl)ammonium bromide]	< 1	–
C[N+](C)(CCCOCc1ccccc1)Cc1cnc([C@](O)(c2ccccc2)C2CCCCC2)o1 [Example 80, (3-Benzyloxy-propyl)-[2-((R)-cyclohexyl-hydroxy-phenyl-methyl)-oxazol-5-ylmethyl]-dimethyl-ammonium bromide]	< 1	–
C[N+](C)(CCOCc1ccc(Cl)cc1)Cc1cnc([C@](O)(c2ccccc2)C2CCCCC2)o1 [Example 81, [2-(4-Chloro-benzyloxy)-ethyl]-[2-((R)-cyclohexyl-hydroxy-phenyl-methyl)-oxazol-5-ylmethyl]-dimethyl-ammonium methanesulfonate]	< 1	–
